Like-named read-outs stand apart in the source and are kept apart here.
Columns and labels:
[1] = test system: HT-29 colon; experiment: Antitumor activity of cytotoxic drugs alone or combined with PX-866, HT-29 colon (Table 2); format: in vivo; conditions: for Alone Growth delay days / Alone TGI % / Alone log cell kill: size 150 mm^3
[2] = test system: OvCaR-3 ovarian; experiment: Antitumor activity of wortmannin analogs, OvCaR-3 ovarian tumor (Table 1); format: in vivo; conditions: initial tumor vol 120 mm^3, 8 mg/kg/day ip Q1D × 9
[3] = test system: OvCaR-3 ovarian; experiment: Antitumor activity of cytotoxic drugs alone or combined with PX-866, OvCar-3 ovarian (Table 2); format: in vivo; conditions: for Alone Growth delay days / Alone TGI % / Alone log cell kill: size 110 mm^3
[4] = test system: phospho-Akt in A-549 cells; experiment: cells; format: cell-based; conditions: Homo sapiens, A549; A-549 cells in media containing 10% fbs; read-out: IC50, inhibition of phospho-Akt
Method: (§1) Cells. […] All cell lines were tested to be mycoplasma free using a PCR ELISA kit (Roche Diagnostics Inc., Indianapolis, Ind.).
Measurement of PtdIns-3-kinase.

[5] = test system: HT-29 colon; experiment: Antitumor activity of wortmannin analogs, HT-29 colon tumor (Table 1); format: in vivo; conditions: initial tumor vol 170 mm^3, 12 mg/kg/day ip Q1D × 9
[6] = test system: A-549 cells; format: cell-based, human; conditions: PX-866 at concentrations up to 100 nM
Method: as §1

[7] = test system: HT-29 colon cancer; experiment: Antitumor activity of PX-866 with gefitinib in HT-29 colon cancer; format: in vivo; conditions: PX-866 2 mg/kg orally 4 hours prior to gefitinib 75 mg/kg po (FIG. 13)
[8] = Pharmacokinetics of PX-866 in mouse plasma; format: in vivo; conditions: intravenous, intraperitoneal and oral administration; mouse plasma (FIG. 2)
[9] = Plasma insulin levels after PX-866; format: in vivo, C57B1/6 mice; conditions: PX-866 single dose of 10 mg/kg po (FIG. 10)
Source text: PX-866 and glucose tolerance.

[10] = Toxicity of long term PX-866 administration, scid mice; format: in vivo; conditions: for ALT: 24 hr after last dose, mean of 4 mice ± SE; for gain in body weight as % of the control weight gain: over the 4 weeks of treatment
Method: Toxicity Studies. […] The mice were killed 24 hr after the last dose and changes in body weight, blood lymphocyte, neutrophil, red blood cell, platelet counts, serum glucose, aspartate amino transferase (AST), and amino alanine transferase (ALT) were measured.
Values are the mean of 4 mice per group±SE.

[11] = test system: A-549 lung; experiment: Antitumor activity of cytotoxic drugs alone or combined with PX-866, A-549 lung (Table 2); format: in vivo
[12] = test system: tumor phospho-EGFR (A-549 tumor xenografts); format: in vivo, scid mice
[13] = test system: HT-29 xenograft phosphor-Akt; experiment: Inhibition of HT-29 xenograft phospho-Akt by wortmannin analogs (pharmacodynamics); format: in vivo
Method: The pharmacodynamics of various wortmannin analogs were tested. […] PX-866 was administered intraperitoneal, intravenously and orally.

[14] = PX-866 iv 10 mg/kg Q2D × 3 combined with cisplatin ip 2.5 mg/kg Q2D × 3
[15] = PX-866 po 2.5 mg/kg Q2D × 3 combined with cisplatin ip 2.5 mg/kg Q2D × 3
[16] = PX-866 iv 12 mg/kg Q2D × 5 combined with taxol ip 12 mg/kg Q2D × 5
[17] = PX-866 po 4 mg/kg Q2D × 5 combined with taxol ip 12 mg/kg Q2D × 5
[18] = PX-866 1.5 mg/kg po every other day for 14 doses, mean ± SE
[19] = PX-866 3 mg/kg po every other day for 14 doses, mean ± SE
[20] = PX-866 10 mg/kg iv every other day for 14 doses, mean ± SE
[21] = PX-866 ip 6 mg/kg QD × 5 combined with cisplatin ip 1 mg/kg QD × 5
[22] = size 300 mm^3, PX-866 ip 6 mg/kg QD × 5

C=CCN(/C=C1/C(=O)O[C@H](COC)[C@@]2(C)C1=C(O)C(=O)C1=C2[C@H](OC(C)=O)C[C@]2(C)C(=O)CC[C@@H]12)CC=C [PX-866]
Combined Growth delay days [1, 14]: 6 days | Combined TGI % [1, 14]: 56% | Combined log cell kill [1, 14]: 0.5 | Combined Growth delay days [1, 15]: 8 days | Combined TGI % [1, 15]: 63% | Combined log cell kill [1, 15]: 0.7 | Alone Growth delay days ([1]; PX-866 iv 10 mg/kg Q2D × 3): 0 days | Alone TGI % ([1]; PX-866 iv 10 mg/kg Q2D × 3): 11% | Alone log cell kill ([1]; PX-866 iv 10 mg/kg Q2D × 3): 0.3 | Alone Growth delay days ([1]; PX-866 po 2.5 mg/kg Q2D × 3): 1 days | Alone TGI % ([1]; PX-866 po 2.5 mg/kg Q2D × 3): 29% | Alone log cell kill ([1]; PX-866 po 2.5 mg/kg Q2D × 3): 0.1 | Growth Delay [2]: 12 days | Log10 cell kill [2]: 1.2 | T/C % (optimal test/control) ([2]; day 40): 30 (40) % | Combined Growth delay days [3, 16]: 20 days | Combined TGI % [3, 16]: 83% | Combined log cell kill [3, 16]: 1.5 | Combined Growth delay days [3, 17]: 34 days | Combined TGI % [3, 17]: 87% | Combined log cell kill [3, 17]: 2.6 | Alone Growth delay days ([3]; PX-866 iv 12 mg/kg Q2D × 5): 12 days | Alone TGI % ([3]; PX-866 iv 12 mg/kg Q2D × 5): 58% | Alone log cell kill ([3]; PX-866 iv 12 mg/kg Q2D × 5): 0.9 | Alone Growth delay days ([3]; PX-866 po 4 mg/kg Q2D × 5): 11 days | Alone TGI % ([3]; PX-866 po 4 mg/kg Q2D × 5): 53% | Alone log cell kill ([3]; PX-866 po 4 mg/kg Q2D × 5): 0.82 | IC50 [4]: 25 nM | Growth Delay [5]: 6 days | Log10 cell kill [5]: 0.4 | T/C % (optimal test/control) ([5]; day 16): 39 (16) % | enhancement of the growth inhibition by gefitinib [6]: did not enhance | antitumor effect with gefitinib [7]: increased the antitumor effect of gefitinib | half-life [8]: ~16 h | duration of increase in plasma insulin levels [9]: up to 5 hr | ALT ([10]; PX-866 1.5 mg/kg po every other day for 14 doses): 65.6 ± 27.5 U/l | AST [10, 18]: 140.5 ± 35.2 U/l | Hb [10, 18]: 14.6 ± 0.3 g/dL | Weight change [10, 18]: 3.9 ± 0.6 g | ALT ([10]; PX-866 3 mg/kg po every other day for 14 doses): 47.6 ± 16.8 U/l | AST [10, 19]: 152.0 ± 47.2 U/l | Hb [10, 19]: 14.7 ± 0.4 g/dL | LY [10, 19]: 5.2 ± 3.9 K/μl | MO [10, 19]: 9.2 ± 3.6 K/μl | Plt [10, 19]: 1665 ± 227 K/μl | gain in body weight as % of the control weight gain ([10]; PX-866 3 mg/kg po): 28% | ALT ([10]; PX-866 10 mg/kg iv every other day for 14 doses): 35.5 ± 11.7 U/l | AST [10, 20]: 105.2 ± 19.2 U/l | Hb [10, 20]: 14.4 ± 0.1 g/dL | LY [10, 20]: 1.8 ± 0.5 K/μl | MO [10, 20]: 1.1 ± 0.2 K/μl | Ne [10, 20]: 14.0 ± 2.7 K/μl | Plt [10, 20]: 1390 ± 43 K/μl | WBC [10, 20]: 14.6 ± 4.2 K/μl | glucose [10, 20]: 76.2 ± 3.6 mg/dL | gain in body weight as % of the control weight gain ([10]; PX-866 10 mg/kg iv): 83% | time for changes in body weight, plasma glucose and blood cell counts to return to normal after treatment stopped ([10]; scid mice, long term PX-866): ≤ 9 days | Combined Growth delay days [11, 21]: 10 days | Combined TGI % [11, 21]: 58% | Combined log cell kill [11, 21]: 1.0 | Alone Growth delay days [11, 22]: 3 days | Alone TGI % [11, 22]: 27% | Alone log cell kill [11, 22]: 0.30 | effect upon tumor phospho-EGFR ([12]; PX-866 3 mg/kg po every other day for 5 days): no significant effect | effect upon tumor phospho-EGFR ([12]; PX-866 12 mg/kg iv every other day for 5 days): no significant effect | effect upon tumor phospho-EGFR ([12]; combination of gefitinib and PX-866): inhibited both | inhibition of HT-29 xenograft phosphor-Akt ([13]; dose dependency, PX-866, PX-867 and PX-881 compared (FIG. 1A)): greatest inhibitory activity | inhibition of HT-29 xenograft phosphor-Akt over time by route ([13]; oral compared with intraperitoneal and intravenous (FIG. 1B)): more consistent inhibition over a longer period of time
